Consider two sequences from patent US10538802B2, “Polypeptide substrate for the detection of von Williebrand factor cleaving protease ADAMTS13” (IMMUCOR GTI DIAGNOSTICS, INC., priority 2011, dated 2020).

No end group written: not given here.

Data set [1] in a line: Solubility of the SEQ ID NO: 7 polypeptide substrate (working solution centrifuged, pellet observed). The data set is classed as physicochemical. As for the experimental part:
250 .micro.L of working solution is prepared as above. The solution is vortexed vigorously and appears to be in solution. The solution is centrifuged at ˜12,000 g for about 2 minutes. After centrifugation, a very small pink pellet is noted at the bottom of the tube. […] Another tube is prepared as above substituting water for the substrate buffer. This tube is also centrifuged. Once again a pink pellet is observed in the bottom of the tube. The pellet observed in the water solution is noticeably larger than the pellet observed in the substrate buffer solution.

The target of the next data set is T1, ADAMTS13 (Homo sapiens, UniProt Q76LX8).
T1 construct: tissue Gen-Probe GTI Diagnostics (ATS-13 kit calibrators, controls and proficiency samples); George King Biomedical Inc. (FACT, A-FACT, B-FACT plasmas) ATS-13; host or cells: plasma
T1 sequence (Q76LX8 75-1427): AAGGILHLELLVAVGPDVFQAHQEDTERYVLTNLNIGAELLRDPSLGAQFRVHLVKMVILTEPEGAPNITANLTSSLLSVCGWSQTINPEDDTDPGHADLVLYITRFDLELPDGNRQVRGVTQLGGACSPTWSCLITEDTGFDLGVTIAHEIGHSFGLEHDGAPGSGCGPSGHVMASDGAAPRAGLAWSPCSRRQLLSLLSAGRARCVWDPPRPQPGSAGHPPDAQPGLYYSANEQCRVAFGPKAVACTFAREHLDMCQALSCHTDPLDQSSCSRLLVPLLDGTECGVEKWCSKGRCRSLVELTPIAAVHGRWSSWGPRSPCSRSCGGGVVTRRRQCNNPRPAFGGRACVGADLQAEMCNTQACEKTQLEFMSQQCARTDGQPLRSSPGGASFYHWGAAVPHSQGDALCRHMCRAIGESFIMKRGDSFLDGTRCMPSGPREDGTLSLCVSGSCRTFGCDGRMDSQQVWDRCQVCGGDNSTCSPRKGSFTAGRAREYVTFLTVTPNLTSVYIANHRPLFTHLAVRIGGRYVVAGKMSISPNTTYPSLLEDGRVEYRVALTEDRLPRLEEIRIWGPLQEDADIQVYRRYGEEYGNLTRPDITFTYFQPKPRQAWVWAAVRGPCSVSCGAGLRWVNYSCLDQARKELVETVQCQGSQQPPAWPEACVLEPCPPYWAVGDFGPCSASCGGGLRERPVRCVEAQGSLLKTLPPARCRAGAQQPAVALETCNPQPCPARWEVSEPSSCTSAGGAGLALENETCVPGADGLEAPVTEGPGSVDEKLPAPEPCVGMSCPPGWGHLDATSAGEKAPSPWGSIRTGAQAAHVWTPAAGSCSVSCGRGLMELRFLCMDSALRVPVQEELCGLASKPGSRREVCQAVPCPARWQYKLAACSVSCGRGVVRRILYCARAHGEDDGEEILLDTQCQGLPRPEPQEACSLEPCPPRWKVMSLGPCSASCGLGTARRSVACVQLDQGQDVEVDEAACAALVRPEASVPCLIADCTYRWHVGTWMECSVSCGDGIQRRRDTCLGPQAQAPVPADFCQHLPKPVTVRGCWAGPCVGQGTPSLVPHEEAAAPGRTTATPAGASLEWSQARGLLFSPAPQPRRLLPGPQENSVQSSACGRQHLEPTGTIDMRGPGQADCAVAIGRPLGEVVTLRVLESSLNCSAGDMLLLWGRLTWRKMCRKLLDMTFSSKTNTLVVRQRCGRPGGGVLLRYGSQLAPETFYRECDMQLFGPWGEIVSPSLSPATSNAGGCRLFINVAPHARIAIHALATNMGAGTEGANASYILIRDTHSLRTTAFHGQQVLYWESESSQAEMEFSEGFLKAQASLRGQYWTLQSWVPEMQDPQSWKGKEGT
Description: ADAMTS13 activity assay with fluorogenic (FRET) polypeptide substrate and diluted plasma samples. The format is biochemical. The conditions noted are these: for Assigned/Expected % Normal ADAMTS13 Activity Values Based on FRETS-VWF73 Substrate: incubation 30 Minutes. How it is done: The procedure in this example was performed substantially as described in Kokame, K., Y. Nobe, Y. Kokubo, A. Okayama, and T. Miyata. 2005. FRETS-VWF73, a first fluorogenic substrate for ADAMTS13 assay. Br. J. Haematol. 129:93-100, but using SEQ ID NO: 1 in place of the 73 amino acid substrate described therein. The FRETS-VWF73 substrate solution was dissolved in 25% dimethyl sulphoxide/water to prepare the 100 microM stock solution. The GTI FRET4 SEQ ID NO: 1 was dissolved in 100% DMSO. Both substrates were diluted to equal concentrations using ATS-13 substrate buffer (Gen-Probe GT1 Diagnostics, Inc., U.S.A., Cat#ATS-13).
Plasma samples were diluted according to the ATS-13 Direction Insert using ATS-13 specimen diluent (Gen-Probe GTI Diagnostics, Inc., U.S.A., Cat# ATS-13). The diluted plasma samples were mixed with the diluted substrate and the fluorescence was read at 0, 5, 10, 15, 20, 30, 45 minutes using a Biotek FLX800 at the appropriate excitation and emission wavelengths for each substrate.
The fluorophore-quencher pair in the SEQ ID NO: 1 polypeptide substrate is FAM-5/TQ 2^Tm (Ex 485±20; Em 528±20; AAT Bioquest, Inc. Sunnyvale, Calif. U.S.A.). The fluorophore and quencher pair of FRETS-VWF73 (Nma/Dnp) described in Kokame has been substituted with FAM-5 and TQ_2 respectively in GTI_FRET4 SEQ ID NO: 1. Furthermore, in the SEQ ID NO: 1 polypeptide the position of the fluorophore (FAM-5) and quencher (TQ_2) has been swapped relative to the position of the fluorophore and quencher of the FRETS-VWF73 construct. Therefore, for GTI_FRET4 SEQ ID NO: 1, attachment of the fluorophore (FAM-5) occurs by substituting asparagine with cystine at position 15. The quencher (TQ_2) was attached by substituting glutamine with lysine at position 4 (FIG. 2 and Table 4).
For this experiment, substrate concentration and fluorescence reader settings determined on the previous experiment are used. The specimens tested (listed in Table 3), include a panel of proficiency samples prepared for use with ATS-13 (Gen-Probe GTI Diagnostics, Inc., U.S.A., Cat# ATS-13) which included samples with normal or deficient ADAMTS13 activity levels. In addition, six Factor Assay ConTrol plasma were used (2 FACT, 2 A-FACT and 2 B-FACT, from George King Biomedical Inc., Kansas, USA). The assays for the SEQ ID NO: 1 substrate and for the prior art FRETS-VWF73 assay were performed generally as according to the procedure described in Example 1. Substrate is prepared according to the conditions used for initial testing of the substrate, which prepared the molar amount of SEQ ID NO: 1 polypeptide substrate used in the assay to be equivalent to the molar amount of FRETS-VWF73 used in the prior art. The […] assays were read at 0, 5, 10, 15, 20, 30, 45 minutes.
Testing of substrate for cleavability by ADAMTS13 is determined as is generally described in Example 1. […]

“DREKAPNLVYMVTGCPASDEIKRLPGDIIGWPNAPILIQDFETLPREAPDLVLQR [GTI_FRET5]”: the “solubility in water compared with substrate buffer” value in data set [1] (pellet size after centrifugation) was “less soluble in water than in the buffer”. Also, the “solubility in the working solution as prepared” value in data set [1] (substrate buffer, centrifuged ~12,000 g about 2 minutes) was “not completely soluble”.
“DREQAPNLVYMVTGNPASDEIKRLPGDIQVVPIGVGPNANVOELERIGWPNAPILIQDFLTLPREAPDLVLQR [FRETS-VWF73, reference compound]”: the “reaction time in the ADAMTS13 assay” value at ADAMTS13 amounted to 30 min. The “trend line of the calibration curve” value on ADAMTS13 is “polynomial”. The “difference between Calibrator A and E, dynamic range” value at ADAMTS13 (Example 2, at 30 minutes) was 2500 RFU. Besides, the “Assigned/Expected % Normal ADAMTS13 Activity Values Based on FRETS-VWF73 Substrate” value on ADAMTS13 (sample Calibrator A) was 0 % Normal; at ADAMTS13 (sample Calibrator B), 9 % Normal; on ADAMTS13 (sample Calibrator C), 34 % Normal; at ADAMTS13 (sample Calibrator D) it was 55 % Normal; on ADAMTS13 (sample Calibrator E), 102 % Normal; at ADAMTS13 (sample MON110707) it was ~90-100 % Normal. Besides, the “Assigned/Expected % Normal ADAMTS13 Activity Values Based on FRETS-VWF73 Substrate” value at ADAMTS13 (sample Positive Control High) is listed as 36-54 % Normal; at ADAMTS13 (sample Positive Control Low) it was 6-17 % Normal; at ADAMTS13 (sample UAMS041609), ~35 % Normal; on ADAMTS13 (sample VF), ~20 % Normal.
